ChEMBL document CHEMBL1201862, “PubChem BioAssay data set” (2004)
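Five compound concentrations were applied to cells in 96-well plates for 48 hours; endpoints were derived by simple linear interpolation of the resulting dose-response curve. GI50 = concentration required for 50% inhibition of growth.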 Activity calls are given as the source filed them. Cut-off read from the data, not from the text of the source: active = GI50 up to about 1.1 µM and inactive = higher.

Experiments:
Experiment in all cases: DTP human tumour cell line panel, 48 h
IGROV-1 = system: IGROV-1
CCRF-CEM = system: CCRF-CEM
HOP-92 = system: HOP-92
MOLT-4 = system: MOLT-4
UACC-62 = system: UACC-62
HL-60 = system: HL-60
SK-MEL-5 = system: SK-MEL-5
A549 = system: A549
SW-620 = system: SW-620
T47D = system: T47D
MDA-MB-231 = system: MDA-MB-231
HCC 2998 = system: HCC 2998
CAKI-1 = system: CAKI-1
SK-OV-3 = system: SK-OV-3
TK-10 = system: TK-10
NCI-H226 = system: NCI-H226
HOP-62 = system: HOP-62
MDA-N = system: MDA-N
OVCAR-4 = system: OVCAR-4
SNB-19 = system: SNB-19

Measured: GI50

Cc1cc(C(F)(F)F)cc(-n2nc(NS(=O)(=O)c3cc(C)c(Cl)cc3S)nc2N)n1
inactive: IGROV-1 36.6 µM | CCRF-CEM 23.7 µM | HOP-92 32.7 µM | MOLT-4 24.3 µM | UACC-62 29.5 µM | HL-60 32.8 µM | SK-MEL-5 37.1 µM | A549 36.6 µM | SW-620 > 100 µM | T47D 57.1 µM | MDA-MB-231 37.7 µM | HCC 2998 34.8 µM | CAKI-1 7.46 µM | SK-OV-3 81.7 µM | TK-10 > 100 µM | NCI-H226 40.3 µM | HOP-62 23.3 µM | MDA-N 52.8 µM | OVCAR-4 > 95.3 µM | SNB-19 26.8 µM

COc1ccc(N2C(=O)CC(=O)N(NC(=O)C(C)Oc3ccccc3C)C2=S)cc1 (stereo not given)
inactive: IGROV-1 > 100 µM | CCRF-CEM > 100 µM | HOP-92 > 100 µM | MOLT-4 > 100 µM | UACC-62 > 100 µM | HL-60 > 100 µM | SK-MEL-5 > 100 µM | A549 > 100 µM | SW-620 > 100 µM | T47D > 100 µM | MDA-MB-231 > 100 µM | HCC 2998 > 100 µM | CAKI-1 > 100 µM | SK-OV-3 > 100 µM | TK-10 > 100 µM | NCI-H226 > 100 µM | HOP-62 > 100 µM | MDA-N > 100 µM | OVCAR-4 > 100 µM | SNB-19 > 100 µM

FC(F)(F)C1(c2ccccc2)SCc2nc3ccccc3n21 (stereo not given)
inactive: IGROV-1 > 100 µM | CCRF-CEM 88.1 µM | HOP-92 47.2 µM | MOLT-4 61.7 µM | UACC-62 > 100 µM | HL-60 24.2 µM | SK-MEL-5 66.1 µM | A549 > 100 µM | SW-620 > 100 µM | T47D 62.8 µM | MDA-MB-231 > 100 µM | HCC 2998 > 100 µM | CAKI-1 > 100 µM | SK-OV-3 > 100 µM | TK-10 > 100 µM | NCI-H226 > 100 µM | HOP-62 > 100 µM | MDA-N 38.3 µM | OVCAR-4 > 100 µM | SNB-19 > 100 µM

COC(=O)C1=C(C(=O)OC)C2(c3ccccc3)c3ccccc3C(=O)C1N2C1CCCCC1 (stereo not given)
inactive: IGROV-1 49.4 µM | CCRF-CEM 26.7 µM | HOP-92 > 100 µM | MOLT-4 6.61 µM | UACC-62 61.8 µM | HL-60 3.1 µM | SK-MEL-5 26.2 µM | A549 17.7 µM | SW-620 41.3 µM | T47D > 100 µM | MDA-MB-231 > 32.4 µM | HCC 2998 23.2 µM | CAKI-1 49.1 µM | SK-OV-3 > 96.2 µM | TK-10 31.3 µM | NCI-H226 50.4 µM | HOP-62 > 68.9 µM | MDA-N > 65 µM | OVCAR-4 58.2 µM | SNB-19 > 63.4 µM

COC(=O)C(Cc1ccccc1I)C1=CCC2(CC1)OCCO2 (stereo not given)
inactive: IGROV-1 41 µM | CCRF-CEM 41.7 µM | HOP-92 28.2 µM | MOLT-4 21.4 µM | UACC-62 20 µM | HL-60 18.7 µM | SK-MEL-5 16.8 µM | A549 22.4 µM | SW-620 44.4 µM | T47D 12.3 µM | MDA-MB-231 54.5 µM | HCC 2998 31.6 µM | CAKI-1 70 µM | SK-OV-3 36.9 µM | TK-10 31.6 µM | NCI-H226 79.3 µM | HOP-62 28.9 µM | MDA-N 28.6 µM | OVCAR-4 37.2 µM | SNB-19 25.4 µM
